Assay results published in patent US12357615B2, “Compositions for the treatment of brain tumors” (Kembi Therapeutics Pty Ltd, priority 2018, dated 2025).

Columns and labels:
[1] = system: 8MGBA AR negative glioblastoma multiforme cell line; assay: GBM tumor cell line inhibition assay (colony formation), 8MGBA; format: cell-based; details: AR negative GBM cells
Procedure: (§1) The term “percent colony formation” as used herein is the number of colonies after treatment with seviteronel and normalized to the number of colonies formed in the absence of seviteronel.
(§2) AR positive and AR negative GBM cells were plated at clonal density and 1-2 days later were treated with the test compounds at the indicated concentrations. After 10-12 days, the plates were stained with crystal violet. The number of colonies were then counted and normalized to the number of colonies formed in the absence of the test compounds. The results were plotted using Graphpad Prism.

[2] = system: T98G AR positive cell line; assay: Clonogenic survival after radiation with seviteronel, T98G; format: cell-based; details: 5 μM seviteronel 24 hours before radiation 0-8 Gy
Description: (§3) The term “surviving fraction” as used herein is the fraction of cells that retain their reproductive integrity after radiation normalized to the fraction of cells seeded and the colonies formed in the absence of irradiation
(§4) The term “enhancement ratio” as used herein is the ratio of the Dmid (the area under the radiation survival curve, which reflects the effectiveness of radiation) in the absence of seviteronel divided by the Dmid in the presence of seviteronel.
(§5) AR positive or negative GBM cell lines were treated with seviteronel (2.5-5 uM) for 24 hours prior to treatment with a single fraction of ionizing radiation (0-8 Gy) and then replated at clonal density. After 10-14 days, cells were stained with crystal violet and colonies were counted and normalized to conditions without radiation. Enhancement ratios were calculated by dividing the Dmid (the area under the clonogenic-survival curve) of control conditions by the Dmid of the seviteronel-treated cells.

[3] = system: AM38 AR negative cell line; assay: Clonogenic survival after radiation with seviteronel, AM38; format: cell-based; details: seviteronel 2.5-5 uM 24 hours before radiation 0-8 Gy
Description: as §3, §4, §5

[4] = system: 8MGBA AR negative cell line; assay: Clonogenic survival after radiation with seviteronel, 8MGBA; format: cell-based; details: seviteronel 2.5-5 uM 24 hours before radiation 0-8 Gy
Description: as §3, §4, §5

[5] = system: AM38 AR negative glioblastoma multiforme cell line; assay: GBM tumor cell line inhibition assay (colony formation), AM38; format: cell-based; details: AM38, AR negative GBM cells
Procedure: as §1, §2

[6] = system: T98G AR positive glioblastoma multiforme cell line; assay: GBM tumor cell line inhibition assay (colony formation), T98G; format: cell-based; details: Homo sapiens; T98 (T98G), AR positive GBM cells, 10-12 days; read-out: GI50 (growth inhibition, colony formation)
Procedure: as §1, §2

[7] = system: T98G xenograft; assay: Mouse T98G xenograft model, seviteronel and radiation therapy; format: in vivo
Procedure: T98G cancer cells were implanted into the flanks of DHT-bearing female C.B-17 SCID mice. After tumors reached approximately 100 mm3 in size, tumors were randomized into control, seviteronel alone (75 mg/kg for 30 days), radiation alone (2 Gy×6 fractions), or combined radiation and seviteronel treatment groups. Tumor size was measured over time and time to tumor doubling was estimated using the Kaplan-Meyer method. The results were plotted using Graphpad Prism.

[8] = system: LN18 AR positive cell line; assay: Clonogenic survival after radiation with seviteronel, LN18; format: cell-based; details: 2.5 μM seviteronel 24 hours before radiation 0-8 Gy
Description: as §3, §4, §5

[9] = system: T98G xenograft; details: implanted DHT pellets versus no DHT, female C.B-17 SCID mice
Procedure: T98G cancer cells were implanted into the flanks female C.B-17 SCID mice with or without implanted DHT pellets. Tumor size was measured over time. The results were plotted using Graphpad Prism.

With `CC(C)[C@](O)(c1ccc2cc(OC(F)F)c(OC(F)F)cc2c1)c1c[nH]nn1` [seviteronel] the effect on growth [1] was “little to no effect”, the “enhancement ratio (Dmid without / with seviteronel)” value [2] was 1.32 and the “enhancement ratio (Dmid without / with seviteronel)” value [3] was 1.03. The “enhancement ratio (Dmid without / with seviteronel)” value [4] was 1.0, the effect on growth [5] was “little to no effect” and the GI50 [6] was 4 µM. For the same compound, the “tumor volume increase over 35 days” value ([7]; seviteronel 75 mg/kg days 1-30 plus radiation therapy 2 Gy x 6 fractions days 2-7) was “approximately 50%”, the “mice with doubling in tumor volume after 30 days” value ([7]; seviteronel 75 mg/kg plus radiation therapy 2 Gy x 6 fractions) was “none” and the “tumor volume increase over 35 days” value ([7]; seviteronel alone, 75 mg/kg for 30 days, untreated approximately 5 fold) was 2-3 fold. The “time to tumor doubling” value ([7]; seviteronel alone, 75 mg/kg for 30 days, untreated within 15 days) was no more than 30 days and the “enhancement ratio (Dmid without / with seviteronel)” value [8] was 1.5.
With `C[C@]12CCC(=O)C[C@@H]1CC[C@@H]1[C@@H]2CC[C@]2(C)[C@@H](O)CC[C@@H]12` [DHT, Dihydrotestosterone] the “tumor volume over time” value [9] was “increased more rapidly”.
